How the values were obtained:
Type in all cases: cell-based
rP2X7 receptor = target: T1, rP2X7 receptor (Rattus norvegicus, UniProt Q64663); assay: Whole-cell recordings in HEK293 cells transiently transfected with rP2X7 receptors (Example 3)
T1 construct: yielding a construct that encoded the entire P2X7 protein; expressed in transfected cells
T1 sequence (Q64663 1-595): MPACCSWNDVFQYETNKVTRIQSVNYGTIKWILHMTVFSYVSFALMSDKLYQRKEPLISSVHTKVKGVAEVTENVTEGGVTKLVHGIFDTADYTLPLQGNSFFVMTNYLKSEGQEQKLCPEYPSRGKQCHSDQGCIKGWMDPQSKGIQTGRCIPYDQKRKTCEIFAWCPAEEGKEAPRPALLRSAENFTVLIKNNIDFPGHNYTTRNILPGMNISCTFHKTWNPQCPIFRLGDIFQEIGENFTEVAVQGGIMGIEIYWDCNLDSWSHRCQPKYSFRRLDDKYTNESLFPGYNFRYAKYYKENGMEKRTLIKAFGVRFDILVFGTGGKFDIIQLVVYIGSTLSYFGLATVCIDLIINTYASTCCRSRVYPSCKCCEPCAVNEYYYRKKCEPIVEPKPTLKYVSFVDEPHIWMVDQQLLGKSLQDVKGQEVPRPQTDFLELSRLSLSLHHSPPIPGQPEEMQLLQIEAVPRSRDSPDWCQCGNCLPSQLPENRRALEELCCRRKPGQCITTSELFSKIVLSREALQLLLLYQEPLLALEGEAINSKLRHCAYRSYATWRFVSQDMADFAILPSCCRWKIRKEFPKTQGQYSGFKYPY
Protocol: (§1) Cell culture. HEK293 cells were transiently transfected with cDNA (1 μg/ml) and lipofectin dissolved in Optimem (GIBCO) placed into petri dishes containing four coverslips onto which cells were plated at a density of about 8×10^4/coverslip. Cells were washed 5 h later and normal DMEM applied. Electrophysiological studies or dye uptake measurements were carried out 18-49 h later. For each set of transfections, parallel experiments were performed on HEK cells transfected with cDNA encoding both rP2X7 and hP2X7 receptors.
(§2) Electrophysiological experiments. Whole-cell recordings were made using the EPC9 patch-clamp amplifier and Pulse acquisition programs (HEKA, Lambrecht, Germany). Patch pipettes (5-7 MΩ) contained (mM) CsCl or NaCl 154, EGTA 10, HEPES 5. The normal extracellular solution contained (mM) NaCg 147, KCl2, CaCl2 2, MgCl2 1, HEPES 10 and glucose 12, and the “low divalent” solution had no magnesium and 0.3 mM CaCl2. Agonists were delivered by U-tube delivery system; antagonists, when applied, were present in both superfusion and U-tube. Experiments were carried out at room temperature.

hP2X7 receptor = target: T2, hP2X7 receptor (Homo sapiens, UniProt Q99572); assay: Whole-cell recordings in HEK293 cells transiently transfected with hP2X7 receptors (Example 3)
T2 construct: a clone containing the complete open reading frame of the hP2X7 receptor was constructed; expressed in transfected cells; host or cells: HEK293 (transient), pcDNA3
T2 sequence (Q99572 1-595): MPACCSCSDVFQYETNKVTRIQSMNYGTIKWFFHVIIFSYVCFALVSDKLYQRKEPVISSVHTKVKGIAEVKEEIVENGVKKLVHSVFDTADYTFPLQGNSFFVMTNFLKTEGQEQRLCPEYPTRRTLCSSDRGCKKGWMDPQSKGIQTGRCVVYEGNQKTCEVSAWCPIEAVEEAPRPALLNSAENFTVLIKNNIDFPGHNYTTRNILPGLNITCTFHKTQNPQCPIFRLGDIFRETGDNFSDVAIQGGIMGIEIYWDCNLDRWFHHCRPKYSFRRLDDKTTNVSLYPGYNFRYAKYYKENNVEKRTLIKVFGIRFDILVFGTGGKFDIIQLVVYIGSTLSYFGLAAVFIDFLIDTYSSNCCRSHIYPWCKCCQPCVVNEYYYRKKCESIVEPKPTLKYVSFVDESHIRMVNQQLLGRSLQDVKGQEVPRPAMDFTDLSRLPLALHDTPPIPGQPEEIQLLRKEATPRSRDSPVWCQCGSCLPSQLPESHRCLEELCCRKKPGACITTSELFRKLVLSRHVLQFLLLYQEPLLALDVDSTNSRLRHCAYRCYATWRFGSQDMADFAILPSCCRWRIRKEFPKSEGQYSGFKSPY
Protocol: as §1, §2

P2X7ΔC receptor = target: T3, P2X7ΔC receptor (Rattus norvegicus, UniProt Q64663); assay: YO-PRO-1 uptake in HEK cells expressing P2X7ΔC receptor; conditions: low divalent solution, BzATP 300 μM
T3 construct: the resulting protein (P2X7ΔC) was P2X7 (1-418); expressed in transfected cells; host or cells: HEK293 (transient)
T3 sequence (Q64663 1-418): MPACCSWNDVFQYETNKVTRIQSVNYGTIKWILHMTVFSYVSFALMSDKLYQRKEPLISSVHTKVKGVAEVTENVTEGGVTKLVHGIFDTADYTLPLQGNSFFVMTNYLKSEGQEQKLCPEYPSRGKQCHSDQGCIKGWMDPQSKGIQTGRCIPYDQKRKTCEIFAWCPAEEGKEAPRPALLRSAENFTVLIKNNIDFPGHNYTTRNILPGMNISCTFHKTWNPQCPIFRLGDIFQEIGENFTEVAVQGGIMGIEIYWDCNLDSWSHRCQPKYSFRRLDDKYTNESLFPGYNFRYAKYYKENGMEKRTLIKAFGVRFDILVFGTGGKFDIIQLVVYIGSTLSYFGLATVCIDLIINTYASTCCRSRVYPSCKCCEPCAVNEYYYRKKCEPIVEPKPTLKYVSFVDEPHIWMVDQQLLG
Protocol: YO-PRO-1 (10 μM; Molecular Probes, Eugene, Oreg.) was added to the superfusion fluid during electrophysiological recordings 3 to 6 min before switching to low divalent solution and washed out upon switching back to normal divalent solution, after which the fluorescent lamp was turned on and cells were examined with a fluorescein isothiocyanate filter. For cell counts, 500 cells per cover slip were counted in each case.

cation current induced by maximal concentration of BzATP (rP2X7 receptor; 30 μM BzATP, n=12): 1869±286 pA
current measured at 30 s, of the peak current (rP2X7 receptor; low extracellular divalent concentrations, n=13): 80±3%
EC50 at hP2X7 relative to rP2X7 receptor (fold greater) (hP2X7 receptor): 25 fold
potency to activate the receptor relative to ATP (hP2X7 receptor): 10 fold
cation current induced by maximal concentration of BzATP (hP2X7 receptor; 300 μM BzATP, n=12): 1777±342 pA
current measured at 30 s, of the peak current (hP2X7 receptor; BzATP 300 μM, low extracellular divalent concentrations, n=16): 18±2%
uptake of YO-PRO-1 induced by BzATP (P2X7ΔC receptor): no uptake of YO-PRO-1 was induced
Structure (SMILES): Nc1ncnc2c1ncn2[C@@H]1O[C@H](COP(=O)(O)OP(=O)(O)OP(=O)(O)O)[C@@H](OC(=O)c2ccc(C(=O)c3ccccc3)cc2)[C@H]1O [BzATP, 3′-O-(4-benzoyl)benzoyl ATP]

Source: patent publication US6509163B1, “Methods of screening modulators of mammalian P2X7 purinergic receptors” (Glaxo Group Limited, priority 1997, dated 2003)
